Reference: ChEMBL document CHEMBL1201862, “PubChem BioAssay data set” (2004)
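Briefly, cells in 96-well plates were exposed to five compound concentrations for 48 h, and endpoints were estimated by linear interpolation. GI50 is the concentration that inhibits growth by half.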 Calls of active or inactive are those of the source. Rule as the data show it: active = GI50 up to about 1.1 µM and inactive = higher.

Legend:
Assay in all cases: inhibition of tumour cell growth, NCI panel, 48 h
Hs-578T = system: Hs-578T
HCT-15 = system: HCT-15
KM12 = system: KM12
IGROV-1 = system: IGROV-1
A498 = system: A498
SK-MEL-28 = system: SK-MEL-28
UACC-62 = system: UACC-62
OVCAR-8 = system: OVCAR-8
OVCAR-3 = system: OVCAR-3
MDA-MB-435 = system: MDA-MB-435
TK-10 = system: TK-10
SK-MEL-2 = system: SK-MEL-2
OVCAR-4 = system: OVCAR-4
CAKI-1 = system: CAKI-1
RPMI-8226 = system: RPMI-8226
U-251 = system: U-251
ACHN = system: ACHN
COLO 205 = system: COLO 205
MOLT-4 = system: MOLT-4
SNB-75 = system: SNB-75

SMILES	GI50 (Hs-578T)	GI50 (HCT-15)	GI50 (KM12)	GI50 (IGROV-1)	GI50 (A498)	GI50 (SK-MEL-28)	GI50 (UACC-62)	GI50 (OVCAR-8)	GI50 (OVCAR-3)	GI50 (MDA-MB-435)	GI50 (TK-10)	GI50 (SK-MEL-2)	GI50 (OVCAR-4)	GI50 (CAKI-1)	GI50 (RPMI-8226)	GI50 (U-251)	GI50 (ACHN)	GI50 (COLO 205)	GI50 (MOLT-4)	GI50 (SNB-75)
CNc1nc(=S)[nH]c2sc3c(c12)CCCC3	> 75 µM (inactive)	> 75 µM	> 75 µM (inactive)	> 75 µM (inactive)	> 75 µM (inactive)	> 75 µM (inactive)	> 75 µM (inactive)	> 75 µM (inactive)	> 75 µM (inactive)	> 75 µM (inactive)	> 75 µM (inactive)	> 75 µM (inactive)	> 75 µM (inactive)	> 75 µM (inactive)	> 75 µM (inactive)	> 75 µM (inactive)	> 75 µM (inactive)	> 75 µM (inactive)	> 75 µM (inactive)	> 75 µM (inactive)
O=C1Nc2ccccc2/C1=N/N=c1\cccc[nH]1	39.1 µM (inactive)	30.3 µM	10.8 µM (inactive)	1 µM (active)	25.8 µM (inactive)	> 100 µM (inactive)	65.5 µM (inactive)	11.9 µM (inactive)	48.8 µM (inactive)	> 100 µM (inactive)	22.5 µM (inactive)	> 100 µM (inactive)	20.2 µM (inactive)	32.8 µM (inactive)	20.6 µM (inactive)	19 µM (inactive)	11 µM (inactive)	33.7 µM (inactive)	49.3 µM (inactive)	21.5 µM (inactive)
COC(=O)/C(=C(/C)c1ccco1)P(=O)(OC)OC	> 100 µM (inactive)	> 100 µM	> 100 µM (inactive)	> 100 µM (inactive)	> 100 µM (inactive)	> 100 µM (inactive)	> 100 µM (inactive)	> 100 µM (inactive)	> 100 µM (inactive)	> 100 µM (inactive)	> 100 µM (inactive)	> 100 µM (inactive)	> 100 µM (inactive)	> 100 µM (inactive)	> 100 µM (inactive)	> 100 µM (inactive)	> 100 µM (inactive)	> 100 µM (inactive)	> 100 µM (inactive)	> 100 µM (inactive)
C=C1C(=O)O[C@@H]2[C@@H]3O[C@@H](C[C@@H]13)[C@](C)(O)CC/C=C(\C)CCC[C@@H]2C	17.4 µM (inactive)	11.6 µM	16.3 µM (inactive)	10.2 µM (inactive)	13.2 µM (inactive)	15.8 µM (inactive)	12.4 µM (inactive)	6.7 µM (inactive)	12.5 µM (inactive)	7.87 µM (inactive)	14.4 µM (inactive)	13.3 µM (inactive)	14.5 µM (inactive)	13 µM (inactive)	2.82 µM (inactive)	10.5 µM (inactive)	8.91 µM (inactive)	14.7 µM (inactive)	3.35 µM (inactive)	11.8 µM (inactive)
CCOP(=O)(OCC)C(Nc1cccc(F)c1)c1ccccc1 (stereo not given)	35.9 µM (inactive)	44.4 µM	67 µM (inactive)	> 100 µM (inactive)	> 100 µM (inactive)	> 100 µM (inactive)	63 µM (inactive)	62.2 µM (inactive)	60.5 µM (inactive)	78.9 µM (inactive)	> 100 µM (inactive)	47.9 µM (inactive)	59.3 µM (inactive)	> 100 µM (inactive)	29.7 µM (inactive)	74.1 µM (inactive)	58.7 µM (inactive)	34.4 µM (inactive)	30 µM (inactive)	20.7 µM (inactive)
